In US20250281474A1, “PHARMACEUTICAL COMPOSITION FOR TREATING COGNITIVE DECLINE OR FOR TREATING OVERWEIGHTNESS OR OBESITY” (University of the Ryukyus, priority 2021, published 2025):

What was measured:
HFD-fed mice = assay: MRI volumetric analysis of mouse hippocampus; type: in vivo; details: HFD-fed mice n=8 treated with PER; left CA1 and DG, right CA1, CA3 and DG
Source text: Anatomical brain images of 8 ex vivo mice with CD, HFD, PER treatment were acquired using a Bruker BioSpec 117/11 11.75 Tesla MRI scanner (Bruker BioSpin GmbH, Ettlingen, Germany). MPRAGE (three-dimensional (3D)-prepared rapid gradient-echo) sequences were acquired as high resolution 100 μm iso-voxel images for voxel-based morphometry (matrix size: 280×220×220; field of view: 28×22×22 mm, repetition time: 2000 ms, echo time: 1.78 ms, flip angle: 12 degrees, inversion time: 800 ms, echo train length: 13, average number of times: 2).
A region of interest was drawn in the acquired data image using a rapid acquisition protocol by relaxation enhancement (RARE) sequence (matrix size: 280×220×220, field of view: 28×22×22 mm; repeat time: 1500 ms; echo time: 25 ms; flip angle: 180°). The MPRAGE image and the RARE image were simultaneously acquired by one single scan.
MRI data acquisition of ex vivo mice was acquired by simultaneously placing the head parts of four mice fixed with PBS into an MRI coil. Brains of four mice were confirmed using raw MRI data. […]
The volume of subfields of the hippocampus (CA1, CA2, CA3, DG, EC) was calculated using the ROI file (31, 33, 51, 52). […]

NL-GF mice = assay: Novel object recognition test, AD model mice (NL-GF); type: in vivo, mouse; details: NL-GF mice n=5; CD diet with perampanel 5 mg/kg body weight/day from 8 to 13 weeks of age
Experimental: Mice of CD, HFD, and HFD with PER treatment were handled daily for 5 minutes for 5 days prior to the start of the novel object recognition test. PER means the perampanel, which is an AMPA receptor antagonist. The mice were habituated to a 35 cm square, 25 cm high box for 10 minutes on the first day, and were given 2 identical objects (familiar objects) for 10 minutes on the second day. On the third day, one of the familiar objects was replaced with a novel object of different shape and color (FIG. 2F). […] The search time for each object was measured by offline analysis (47).
NL-GF mice begin to accumulate in the brain of Aβ from 8 weeks of age (Nat. Neurosci. 2014 17,661-4). In this example, the AD model mouse (n=5) was fed a CD diet containing a perampanel at a dose of 5 mg/kg body weight/day from 8 to 13 weeks of age, and the mouse was subjected to a novel object recognition test. In the negative control (n=5), a normal CD diet without perampanel was taken.

[1] = Appearance and body weight of ob/ob mice; type: in vivo, mouse; details: ob/ob mice fed perampanel-containing diet 5 mg/kg body weight from 8 to 12 weeks of age
Experimental: ob/ob mice and their littermates with wild-type traits were obtained as the offspring of ob+/− mice. These mice were fed freely and some of the ob/ob mice were fed perampanel-containing diet at 5 mg/kg body weight from 8 to 12 weeks of age. The appearance and body weight of these mice were compared at 12 weeks of age.

N#Cc1ccccc1-c1cc(-c2ccccn2)cn(-c2ccccc2)c1=O [PER, 3-(2-cyanophenyl)-5-(2-pyridyl)-1-phenyl-1,2-dihydropyridine-2-one]
hippocampal volume (printed brain weight) by volumetric analysis (HFD-fed mice): significantly restored
novel object recognition test (NL-GF mice): significantly distinguish
overweight / appearance at 12 weeks of age [1]: overweight was prevented
